Source: patent EP0326640B1, “(1R,5S,6S)-2-substituted thio-6 (R)-1-hydroxyethyl -1-methyl-carbapenem - carboxylic acid derivatives” (LEDERLE (JAPAN) LTD., priority 1987, dated 1989)
Converted amounts (≈) assume the structure as drawn. Like-named read-outs stand apart in the source and are kept apart here.

Key:
Assay in all cases: Antibacterial activity against clinically isolated β-lactamase (cephalosporinase) producing strains (MIC)
Format in all cases: cell-based
[1] = tested on: Citrobactor freundii GN 346; conditions: cephalosporinase producing strain, SDA, 18 to 20 hours
Protocol: (§1) The antibacterial activities against clinically isolated β-lactamase producing strains were tested by the agar plate dilution method in accordance with the standard method of The Japanese Chemotherapy Society [Chemotherapy, Vol. 29, 76-79 (1981)]. A solution of a cephalosporinase producing strain stored by Episome Research Institute, prepared by incubating the strain in a sensitivity test broth (STB; product of Nissui K. K.) for 18 hours, was diluted with a fresh STB solution so that the solution contained 10⁶ cells per milliliter. The diluted solution was then inoculated as spots in a microplanter on a sensitivity disk agar-N (SDA; product of Nissui K. K.) containing a test compound. The disk agar was then incubated for 18 to 20 hours. The minimum inhibitory concentration was determined as a minimum concentration in which the test microorganism no longer grew after a 18 to 20-hour incubation.

[2] = tested on: Citrobactor freundii GN 7391; conditions: cephalosporinase producing strain, SDA, 18 to 20 hours
Protocol: as §1

[3] = tested on: Enterobacter cloacae GN 5797; conditions: GN5797, cephalosporinase producing strain, SDA, 18 to 20 hours, read-out: MIC
Protocol: as §1

[4] = tested on: Enterobacter cloacae GN 7467; conditions: GN7467; Enterobacter cloacae GN 7467; cephalosporinase producing strain, SDA, 18 to 20 hours; read-out: MIC
Protocol: as §1

[5] = tested on: Enterobacter cloacae GN 7471; conditions: GN7471, cephalosporinase producing strain, SDA, 18 to 20 hours, read-out: MIC
Protocol: as §1

[6] = tested on: Escherichia coli GN 5482; conditions: GN5482, cephalosporinase producing strain, SDA, 18 to 20 hours, read-out: MIC
Protocol: as §1

[7] = tested on: Escherichia coli No. 1501; conditions: cephalosporinase producing strain, SDA, 18 to 20 hours, read-out: MIC
Protocol: as §1

[8] = tested on: Escherichia coli No. 96; conditions: cephalosporinase producing strain, SDA, 18 to 20 hours, read-out: MIC
Protocol: as §1

[9] = tested on: Klebsiella oxytoca GN 10650; conditions: Klebsiella oxytoca, GN10650, Klebsiella oxytoca GN 10650; cephalosporinase producing strain, SDA, 18 to 20 hours; read-out: MIC
Protocol: as §1

[10] = tested on: Proteus morganii GN 5307; conditions: cephalosporinase producing strain, SDA, 18 to 20 hours
Protocol: as §1

[11] = tested on: Proteus morganii GN 5375; conditions: Morganella morganii, GN5375, cephalosporinase producing strain, SDA, 18 to 20 hours, read-out: MIC
Protocol: as §1

[12] = tested on: Proteus morganii GN 5407; conditions: Morganella morganii, GN5407, cephalosporinase producing strain, SDA, 18 to 20 hours, read-out: MIC
Protocol: as §1

[13] = tested on: Proteus vulgaris GN 4413; conditions: Proteus vulgaris
Protocol: as §1

[14] = tested on: Proteus vulgaris GN 76; conditions: Proteus vulgaris, GN76, Proteus vulgaris GN 76; cephalosporinase producing strain, SDA, 18 to 20 hours; read-out: MIC
Protocol: as §1

[15] = tested on: Proteus vulgaris GN 7919; conditions: cephalosporinase producing strain, SDA, 18 to 20 hours
Protocol: as §1

[16] = tested on: Providencia rettgeri GN 4430; conditions: GN4430, cephalosporinase producing strain, SDA, 18 to 20 hours, read-out: MIC
Protocol: as §1

[17] = tested on: Providencia rettgeri GN 4762; conditions: Providencia rettgeri, GN4762, Providencia rettgeri GN 4762; cephalosporinase producing strain, SDA, 18 to 20 hours; read-out: MIC
Protocol: as §1

[18] = tested on: Providencia rettgeri GN 5284; conditions: GN5284, cephalosporinase producing strain, SDA, 18 to 20 hours, read-out: MIC
Protocol: as §1

[19] = tested on: Pseudomonas aeruginosa GN 10362; conditions: GN10362, cephalosporinase producing strain, SDA, 18 to 20 hours, read-out: MIC
Protocol: as §1

[20] = tested on: Pseudomonas aeruginosa GN 10367; conditions: Pseudomonas aeruginosa, GN10367, Pseudomonas aeruginosa GN 10367; cephalosporinase producing strain, SDA, 18 to 20 hours
Protocol: as §1

[21] = tested on: Pseudomonas aeruginosa GN 918; conditions: GN918; Pseudomonas aeruginosa GN 918; cephalosporinase producing strain, SDA, 18 to 20 hours; read-out: MIC
Protocol: as §1

[22] = tested on: Pseudomonas cepacia GN 11164; conditions: Burkholderia cepacia, GN11164, cephalosporinase producing strain, SDA, 18 to 20 hours, read-out: MIC
Protocol: as §1

[23] = tested on: Serratia marcescens GN 10857; conditions: Serratia marcescens, GN10857, Serratia marcescens GN 10857; cephalosporinase producing strain, SDA, 18 to 20 hours; read-out: MIC
Protocol: as §1

[24] = tested on: Serratia marcescens L-65; conditions: Serratia marcescens, L65, Serratia marcescens L-65; cephalosporinase producing strain, SDA, 18 to 20 hours; read-out: MIC
Protocol: as §1

[25] = tested on: Serratia marcescens L-82; conditions: L82, cephalosporinase producing strain, SDA, 18 to 20 hours, read-out: MIC
Protocol: as §1

Which results are given for `C[C@@H](O)[C@H]1C(=O)N2C(C(=O)[O-])=C(SCc3cs[n+](C)n3)[C@H](C)[C@H]12` [Amorphous Compd. (14), (1R,5S,6S)-2-[(2-methyl-1,2,3-thiadiazolium-4-yl)methyl]thio-6-[(R)-1-hydroxyethyl]-1-methyl-carbapenem-3-carboxylate]?
MIC [1]: 0.78 µg/mL (≈ 2.19 µM); MIC [2]: 1.56 µg/mL (≈ 4.39 µM); MIC [3]: 0.1 µg/mL (≈ 0.281 µM); MIC [4]: 3.13 µg/mL (≈ 8.81 µM); MIC [5]: 0.1 µg/mL (≈ 0.281 µM); MIC [6]: 0.05 µg/mL (≈ 0.141 µM); MIC [7]: 0.05 µg/mL (≈ 0.141 µM); MIC [8]: 0.05 µg/mL (≈ 0.141 µM); MIC [9]: 0.39 µg/mL (≈ 1.1 µM); MIC ([10]; Proteus morganii GN 5307): 3.13 µg/mL (≈ 8.81 µM); MIC [11]: 3.13 µg/mL (≈ 8.81 µM); MIC [12]: 6.25 µg/mL (≈ 17.6 µM); MIC ([13]; GN4413, Proteus vulgaris GN 4413, cephalosporinase producing strain, SDA, 18 to 20 hours, read-out: MIC): 6.25 µg/mL (≈ 17.6 µM); MIC [14]: 6.25 µg/mL (≈ 17.6 µM); MIC ([15]; Proteus vulgaris GN 7919): 6.25 µg/mL (≈ 17.6 µM); MIC [16]: 0.39 µg/mL (≈ 1.1 µM); MIC [17]: 0.39 µg/mL (≈ 1.1 µM); MIC [18]: 0.39 µg/mL (≈ 1.1 µM); MIC [19]: 0.78 µg/mL (≈ 2.19 µM); MIC [20]: 1.56 µg/mL (≈ 4.39 µM); MIC [21]: 0.78 µg/mL (≈ 2.19 µM); MIC [22]: 0.39 µg/mL (≈ 1.1 µM); MIC [23]: 6.25 µg/mL (≈ 17.6 µM); MIC [24]: 0.78 µg/mL (≈ 2.19 µM); MIC [25]: 0.2 µg/mL (≈ 0.563 µM)

Which MIC [1] does the source give for `C[C@@H](O)[C@H]1C(=O)N2C(C(=O)O)=C(SCCN=CN)C[C@H]12` [Imipenem, imipenem] here?
Its MIC is 0.39 µg/mL (≈ 1.3 µM).

And the MIC [2]?
The MIC was 0.78 µg/mL (≈ 2.61 µM).

And the MIC [3]?
The MIC was 0.39 µg/mL (≈ 1.3 µM).

And the MIC [4]?
Its MIC is 0.78 µg/mL (≈ 2.61 µM).

What about the MIC [5] of the same compound?
The MIC was 0.2 µg/mL (≈ 0.668 µM).

What about the MIC [6] of the same compound?
The MIC was 0.1 µg/mL (≈ 0.334 µM).

What about the MIC [7] of the same compound?
Its MIC is 0.1 µg/mL (≈ 0.334 µM).

And the MIC [8]?
Its MIC is 0.1 µg/mL (≈ 0.334 µM).

What about the MIC [9] of the same compound?
Its MIC is 0.2 µg/mL (≈ 0.668 µM).

What about the MIC ([10]; Morganella morganii, GN5307, Proteus morganii GN 5307, read-out: MIC) of the same compound?
The MIC was 0.78 µg/mL (≈ 2.61 µM).

What about the MIC [11] of the same compound?
Its MIC is 3.13 µg/mL (≈ 10.5 µM).

What about the MIC [12] of the same compound?
Its MIC is 3.13 µg/mL (≈ 10.5 µM).

What about the MIC ([13]; GN4413) of the same compound?
Its MIC is 6.25 µg/mL (≈ 20.9 µM).

What about the MIC [14] of the same compound?
The MIC was 3.13 µg/mL (≈ 10.5 µM).

And the MIC ([15]; Proteus vulgaris, GN7919, Proteus vulgaris GN 7919, read-out: MIC)?
The MIC was 0.39 µg/mL (≈ 1.3 µM).

What about the MIC [16] of the same compound?
Its MIC is 0.39 µg/mL (≈ 1.3 µM).

What about the MIC [17] of the same compound?
Its MIC is 0.39 µg/mL (≈ 1.3 µM).

What about the MIC [18] of the same compound?
Its MIC is 0.39 µg/mL (≈ 1.3 µM).

What about the MIC [19] of the same compound?
The MIC was 0.78 µg/mL (≈ 2.61 µM).

What about the MIC [20] of the same compound?
Its MIC is 1.56 µg/mL (≈ 5.21 µM).

What about the MIC [21] of the same compound?
Its MIC is 0.78 µg/mL (≈ 2.61 µM).

And the MIC [22]?
The MIC was 3.13 µg/mL (≈ 10.5 µM).

What about the MIC [23] of the same compound?
The MIC was 3.13 µg/mL (≈ 10.5 µM).

And the MIC [24]?
The MIC was 0.39 µg/mL (≈ 1.3 µM).

And the MIC [25]?
Its MIC is 0.2 µg/mL (≈ 0.668 µM).
